Measurements taken from PMC2824606 (Molecular cell, 2010).

Molecular target: yHsp90 (yeast Hsp90, Hsp82) (Saccharomyces cerevisiae, UniProt P02829)
Assay: Kd determination
Type: binding

Chain of yHsp90 (yeast Hsp90, Hsp82) (P02829 whole entry): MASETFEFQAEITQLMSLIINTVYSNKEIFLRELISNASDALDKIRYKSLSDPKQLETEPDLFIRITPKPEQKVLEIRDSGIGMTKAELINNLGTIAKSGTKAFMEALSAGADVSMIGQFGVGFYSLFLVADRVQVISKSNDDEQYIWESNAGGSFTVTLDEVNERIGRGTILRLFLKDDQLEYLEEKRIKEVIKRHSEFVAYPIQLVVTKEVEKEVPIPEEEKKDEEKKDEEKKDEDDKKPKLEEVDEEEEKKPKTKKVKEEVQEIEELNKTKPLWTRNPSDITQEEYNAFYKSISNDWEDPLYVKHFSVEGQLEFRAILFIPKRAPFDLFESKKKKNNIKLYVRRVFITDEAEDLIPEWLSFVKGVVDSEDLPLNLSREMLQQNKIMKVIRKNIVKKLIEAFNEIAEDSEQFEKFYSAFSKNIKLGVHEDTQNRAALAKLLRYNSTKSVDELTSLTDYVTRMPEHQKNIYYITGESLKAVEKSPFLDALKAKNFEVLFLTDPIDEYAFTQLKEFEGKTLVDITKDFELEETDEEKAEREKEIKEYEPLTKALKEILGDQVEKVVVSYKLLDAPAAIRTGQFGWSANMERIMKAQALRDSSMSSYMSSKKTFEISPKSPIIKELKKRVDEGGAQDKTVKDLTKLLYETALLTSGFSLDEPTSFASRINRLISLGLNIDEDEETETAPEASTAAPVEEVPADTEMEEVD

## Nc1ncnc2c1ncn2[C@@H]1O[C@H](CO[P@](=O)(O)O[P@](=O)(O)NP(=O)(O)O)[C@@H](O)[C@H]1O [AMPPNP]
  Kd: Kd of each protein for AMPPNP is shown in inset.
